Laboratory results: PubChem BioAssay (NCI)
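The compound was tested at five concentrations on cells cultured in 96-well plates, with a 48-hour exposure period. TGI marks complete inhibition of growth.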

Tests used:
Assay in all cases: NCI tumour cell line growth inhibition, 48 h
IGROV1 ovarian = system: IGROV1 ovarian
SK-OV-3 ovarian = system: SK-OV-3 ovarian
UACC-62 melanoma = system: UACC-62 melanoma
U251 CNS = system: U251 CNS
NCI-H460 lung = system: NCI-H460 lung
MALME-3M melanoma = system: MALME-3M melanoma
NCI-H226 lung = system: NCI-H226 lung
HCC-2998 colon = system: HCC-2998 colon
HT29 colon = system: HT29 colon
HCT-15 colon = system: HCT-15 colon
M14 melanoma = system: M14 melanoma
K-562 leukemia = system: K-562 leukemia
SNB-75 CNS = system: SNB-75 CNS
TK-10 renal = system: TK-10 renal
NCI-H23 lung = system: NCI-H23 lung
MOLT-4 leukemia = system: MOLT-4 leukemia
CAKI-1 renal = system: CAKI-1 renal
HOP-92 NSCLC = system: HOP-92 NSCLC
MDA-MB-435 = system: MDA-MB-435
MDA-MB-231 breast = system: MDA-MB-231 breast
UO-31 renal = system: UO-31 renal
NCI/ADR-RES ovarian = system: NCI/ADR-RES ovarian
OVCAR-5 ovarian = system: OVCAR-5 ovarian
BT-549 breast = system: BT-549 breast
PC-3 prostate = system: PC-3 prostate
SN12C renal = system: SN12C renal
DU-145 prostate = system: DU-145 prostate
SW-620 colon = system: SW-620 colon
A498 renal = system: A498 renal
HCT-116 colon = system: HCT-116 colon
SK-MEL-5 melanoma = system: SK-MEL-5 melanoma
HOP-62 NSCLC = system: HOP-62 NSCLC
LOX IMVI melanoma = system: LOX IMVI melanoma
COLO 205 colon = system: COLO 205 colon
OVCAR-4 ovarian = system: OVCAR-4 ovarian
KM12 colon = system: KM12 colon
OVCAR-3 ovarian = system: OVCAR-3 ovarian
HS 578T breast = system: HS 578T breast
SK-MEL-28 melanoma = system: SK-MEL-28 melanoma
T-47D breast = system: T-47D breast
SR leukemia = system: SR leukemia
SK-MEL-2 melanoma = system: SK-MEL-2 melanoma
SNB-19 CNS = system: SNB-19 CNS
SF-295 CNS = system: SF-295 CNS
CCRF-CEM leukemia = system: CCRF-CEM leukemia
MDA-N = system: MDA-N
RPMI-8226 leukemia = system: RPMI-8226 leukemia
MCF7 breast = system: MCF7 breast
OVCAR-8 ovarian = system: OVCAR-8 ovarian
RXF 393 renal = system: RXF 393 renal
UACC-257 melanoma = system: UACC-257 melanoma
786-0 renal = system: 786-0 renal
SF-268 CNS = system: SF-268 CNS
HL-60(TB) leukemia = system: HL-60(TB) leukemia
A549 NSCLC = system: A549 NSCLC
NCI-H522 lung = system: NCI-H522 lung
SF-539 CNS = system: SF-539 CNS
ACHN renal = system: ACHN renal
EKVX NSCLC = system: EKVX NSCLC

With `Nc1nccc2c1ncn2[C@H]1C[C@H](O)[C@@H](CO)O1` the TGI (IGROV1 ovarian) was > 100 µM, the TGI (SK-OV-3 ovarian) was > 100 µM and the TGI (UACC-62 melanoma) was > 100 µM. For the same compound, the TGI (U251 CNS) was > 100 µM, the TGI (NCI-H460 lung) was > 100 µM and the TGI (MALME-3M melanoma) was > 100 µM. For the same compound, the TGI (NCI-H226 lung) was > 100 µM, the TGI (HCC-2998 colon) was > 100 µM and the TGI (HT29 colon) was > 100 µM. The TGI (HCT-15 colon) was > 100 µM, the TGI (M14 melanoma) was > 100 µM and the TGI (K-562 leukemia) was > 100 µM. For the same compound, the TGI (SNB-75 CNS) was > 100 µM, the TGI (TK-10 renal) was > 100 µM and the TGI (NCI-H23 lung) was > 100 µM. For the same compound, the TGI (MOLT-4 leukemia) was > 100 µM, the TGI (CAKI-1 renal) was > 100 µM and the TGI (HOP-92 NSCLC) was > 100 µM. The TGI (MDA-MB-435) was > 100 µM, the TGI (MDA-MB-231 breast) was > 100 µM and the TGI (UO-31 renal) was > 100 µM. For the same compound, the TGI (NCI/ADR-RES ovarian) was > 100 µM, the TGI (OVCAR-5 ovarian) was > 100 µM and the TGI (BT-549 breast) was > 100 µM. For the same compound, the TGI (PC-3 prostate) was > 100 µM, the TGI (SN12C renal) was > 100 µM and the TGI (DU-145 prostate) was > 100 µM. The TGI (SW-620 colon) was > 100 µM, the TGI (A498 renal) was > 100 µM and the TGI (HCT-116 colon) was > 100 µM. For the same compound, the TGI (SK-MEL-5 melanoma) was > 100 µM, the TGI (HOP-62 NSCLC) was > 100 µM and the TGI (LOX IMVI melanoma) was > 100 µM. For the same compound, the TGI (COLO 205 colon) was > 100 µM, the TGI (OVCAR-4 ovarian) was > 100 µM and the TGI (KM12 colon) was > 100 µM. The TGI (OVCAR-3 ovarian) was > 100 µM, the TGI (HS 578T breast) was > 100 µM and the TGI (SK-MEL-28 melanoma) was > 100 µM. The TGI (T-47D breast) was > 100 µM, the TGI (SR leukemia) was > 100 µM and the TGI (SK-MEL-2 melanoma) was > 100 µM. For the same compound, the TGI (SNB-19 CNS) was > 100 µM, the TGI (SF-295 CNS) was > 100 µM and the TGI (CCRF-CEM leukemia) was > 100 µM. The TGI (MDA-N) was > 100 µM, the TGI (RPMI-8226 leukemia) was > 100 µM and the TGI (MCF7 breast) was > 100 µM. The TGI (OVCAR-8 ovarian) was > 100 µM, the TGI (RXF 393 renal) was > 100 µM and the TGI (UACC-257 melanoma) was > 100 µM.

With `COC(=O)[C@]12CC[C@H]3CN(C(=O)OCc4ccccc4)[C@H]([C@H]31)[C@H](c1ccccc1)N2` the TGI (IGROV1 ovarian) was > 100 µM, the TGI (SK-OV-3 ovarian) was > 100 µM and the TGI (UACC-62 melanoma) was > 100 µM. For the same compound, the TGI (U251 CNS) was > 100 µM, the TGI (NCI-H460 lung) was > 100 µM and the TGI (NCI-H226 lung) was > 100 µM. For the same compound, the TGI (HCC-2998 colon) was > 100 µM, the TGI (HT29 colon) was > 100 µM and the TGI (HCT-15 colon) was > 100 µM. For the same compound, the TGI (M14 melanoma) was > 100 µM, the TGI (K-562 leukemia) was > 100 µM and the TGI (SNB-75 CNS) was > 100 µM. For the same compound, the TGI (TK-10 renal) was > 100 µM, the TGI (NCI-H23 lung) was > 100 µM and the TGI (MOLT-4 leukemia) was > 100 µM. For the same compound, the TGI (CAKI-1 renal) was > 100 µM, the TGI (HOP-92 NSCLC) was > 100 µM and the TGI (786-0 renal) was > 100 µM. The TGI (MDA-MB-435) was > 100 µM, the TGI (SF-268 CNS) was > 100 µM and the TGI (HL-60(TB) leukemia) was > 100 µM. The TGI (MDA-MB-231 breast) was > 100 µM, the TGI (UO-31 renal) was > 100 µM and the TGI (NCI/ADR-RES ovarian) was > 100 µM. For the same compound, the TGI (OVCAR-5 ovarian) was > 100 µM, the TGI (BT-549 breast) was > 100 µM and the TGI (PC-3 prostate) was > 100 µM. For the same compound, the TGI (SN12C renal) was > 100 µM, the TGI (DU-145 prostate) was > 100 µM and the TGI (SW-620 colon) was > 100 µM. The TGI (A498 renal) was > 100 µM, the TGI (HCT-116 colon) was > 100 µM and the TGI (SK-MEL-5 melanoma) was 58.3 µM. For the same compound, the TGI (HOP-62 NSCLC) was > 100 µM, the TGI (LOX IMVI melanoma) was > 100 µM and the TGI (COLO 205 colon) was > 100 µM. The TGI (OVCAR-4 ovarian) was > 100 µM, the TGI (KM12 colon) was > 100 µM and the TGI (OVCAR-3 ovarian) was > 100 µM. For the same compound, the TGI (HS 578T breast) was > 100 µM, the TGI (A549 NSCLC) was > 100 µM and the TGI (NCI-H522 lung) was > 100 µM. For the same compound, the TGI (SK-MEL-28 melanoma) was > 100 µM, the TGI (T-47D breast) was > 100 µM and the TGI (SR leukemia) was > 100 µM. For the same compound, the TGI (SK-MEL-2 melanoma) was > 100 µM, the TGI (SNB-19 CNS) was > 100 µM and the TGI (SF-295 CNS) was > 100 µM. The TGI (CCRF-CEM leukemia) was > 100 µM, the TGI (MDA-N) was > 100 µM and the TGI (RPMI-8226 leukemia) was > 100 µM. The TGI (MCF7 breast) was > 100 µM, the TGI (OVCAR-8 ovarian) was > 100 µM and the TGI (SF-539 CNS) was > 100 µM. The TGI (ACHN renal) was > 100 µM, the TGI (RXF 393 renal) was > 100 µM and the TGI (EKVX NSCLC) was > 100 µM. The TGI (UACC-257 melanoma) was > 100 µM.

In the case of `CCOC(=O)CCc1cccc2c1oc1c(CCNC(=O)OCC3c4ccccc4-c4ccccc43)cccc12`, the TGI (IGROV1 ovarian) is reported as > 100 µM, the TGI (SK-OV-3 ovarian) is reported as > 100 µM and the TGI (UACC-62 melanoma) is reported as 63.6 µM. The TGI (U251 CNS) was > 100 µM, the TGI (NCI-H460 lung) was > 100 µM and the TGI (MALME-3M melanoma) was 58.4 µM. The TGI (NCI-H226 lung) was > 100 µM, the TGI (HCC-2998 colon) was > 100 µM and the TGI (HCT-15 colon) was > 100 µM. For the same compound, the TGI (M14 melanoma) was > 100 µM, the TGI (K-562 leukemia) was > 100 µM and the TGI (SNB-75 CNS) was 42.1 µM. The TGI (TK-10 renal) was > 100 µM, the TGI (NCI-H23 lung) was > 100 µM and the TGI (MOLT-4 leukemia) was > 100 µM. The TGI (CAKI-1 renal) was 45.4 µM, the TGI (HOP-92 NSCLC) was 85.6 µM and the TGI (786-0 renal) was > 100 µM. The TGI (MDA-MB-435) was > 100 µM, the TGI (SF-268 CNS) was 70.3 µM and the TGI (HL-60(TB) leukemia) was > 100 µM. For the same compound, the TGI (MDA-MB-231 breast) was > 100 µM, the TGI (UO-31 renal) was > 100 µM and the TGI (NCI/ADR-RES ovarian) was > 100 µM. For the same compound, the TGI (OVCAR-5 ovarian) was > 100 µM, the TGI (BT-549 breast) was 68.4 µM and the TGI (PC-3 prostate) was > 100 µM. For the same compound, the TGI (SN12C renal) was > 100 µM, the TGI (DU-145 prostate) was > 100 µM and the TGI (SW-620 colon) was > 100 µM. The TGI (A498 renal) was > 100 µM, the TGI (HCT-116 colon) was > 100 µM and the TGI (SK-MEL-5 melanoma) was > 100 µM. The TGI (HOP-62 NSCLC) was 52.3 µM, the TGI (LOX IMVI melanoma) was > 100 µM and the TGI (COLO 205 colon) was > 100 µM. For the same compound, the TGI (OVCAR-4 ovarian) was > 100 µM, the TGI (KM12 colon) was > 100 µM and the TGI (OVCAR-3 ovarian) was > 100 µM. For the same compound, the TGI (HS 578T breast) was 16.5 µM, the TGI (A549 NSCLC) was > 100 µM and the TGI (NCI-H522 lung) was > 100 µM. For the same compound, the TGI (SK-MEL-28 melanoma) was > 100 µM, the TGI (T-47D breast) was 81.1 µM and the TGI (SR leukemia) was > 100 µM. For the same compound, the TGI (SK-MEL-2 melanoma) was > 100 µM, the TGI (SNB-19 CNS) was 70.6 µM and the TGI (SF-295 CNS) was > 100 µM. For the same compound, the TGI (CCRF-CEM leukemia) was > 100 µM, the TGI (MDA-N) was > 100 µM and the TGI (RPMI-8226 leukemia) was > 100 µM. For the same compound, the TGI (MCF7 breast) was > 100 µM, the TGI (OVCAR-8 ovarian) was > 100 µM and the TGI (ACHN renal) was > 100 µM. For the same compound, the TGI (EKVX NSCLC) was > 100 µM and the TGI (UACC-257 melanoma) was > 100 µM.
